Like-named read-outs stand apart in the source and are kept apart here.
Assays:
murine macrophages [1] = format: cell-based, C57BL/6 mice
murine macrophages [2] = format: cell-based, C57BL/6 mice; remark: listed apart in the source
B. cereus spores [3] = format: cell-based, Bacillus cereus ATCC 11778
murine macrophages [4] = test: Comet assay (tail vs. head) and phagocyte diameter; format: cell-based, C57BL/6 mice; conditions: for diameter of phagocytes upon uptaking glycoconjugate-coated spores: compared to macrophages only, spores only, glycoconjugate alone; for uptake of coated spores and spore-induced cell death: glycoconjugate-coated spores, B; for uptake of coated spores and spore-induced cell death / effect of glycoconjugate-treated spores on murine macrophages (Comet assay): FIG. 10A; for diameter of phagocytic cells, glycoconjugate alone: glycoconjugates alone, dilutions 10^0, 10^-2, 10^-4; for effect of glycoconjugate-treated spores on murine macrophages (Comet assay): macrophages exposed to treated spores, 10B; for effect of glycoconjugate alone on macrophages (Comet assay): macrophages treated with glycoconjugate only, FIG. 10E, 10F
Description: Possible induction of apoptosis was determined by Comet assay (FIG. 10) using Trevigen (Gaithersburg, Md.) Comet assay kit and analyzed under epifluorescence microscope (FIG. 10). Nuclei with damaged DNA have the appearance of a comet with a bright head and a tail, whereas nuclei with undamaged DNA appear round, with no tail. Ration tail vs. head was measured in order to determine apoptosis (FIG. 10).

murine macrophages [5] = test system: murine macrophages
human macrophages = format: cell-based
B. cereus spores [6] = format: cell-based, Bacillus cereus ATCC 11778; remark: listed apart in the source

Substance | induction of macrophage NO production (murine macrophages [1]) | macrophage NO production (extent) (murine macrophages [1]) | LDH release/production (murine macrophages [2]) [%] | destruction of spores (B. cereus spores [3]) [%] | destruction of the spores (in words) (B. cereus spores [3]) | dose at which 50% of the spores were killed (B. cereus spores [3]) [pg/mL] | diameter of phagocytes upon uptaking glycoconjugate-coated spores (murine macrophages [4]) | uptake of coated spores and spore-induced cell death (murine macrophages [4]) | diameter of phagocytic cells, glycoconjugate alone (murine macrophages [4]) | effect of glycoconjugate-treated spores on murine macrophages (Comet assay) (murine macrophages [4]) | effect of glycoconjugate alone on macrophages (Comet assay) (murine macrophages [4]) | macrophage viability (murine macrophages [5]) | human macrophage NO production (human macrophages) | destruction of spores, following spores' exposure (B. cereus spores [6]) [%] | destruction of spores, prior to exposure (B. cereus spores [6]) [%] | destruction of the spores (in words) (B. cereus spores [6]) | spores killed, following exposure condition (B. cereus spores [6]) [%] | spores killed, prior to and during exposure conditions (B. cereus spores [6])
Galα1-3 GalNAcα-PAA-flu [Galα1-3GalNAcα-PAA-flu] | induced macrophage NO production | doubled | 8.9 | 89.4 | almost total destruction of the spores | 1 | increased | stimulates the uptake of coated spores and protect from spore-induced cell death | do not affect the diameter of phagocytic cells | pro-apoptotic effects | do not induce death | ≤ 97.8% | – | – | – | – | – | –
GalNAcα1-3 GalNAcβ-PAA-flu [GalNAcα1-3GalNAcβ-PAA-flu] | induced macrophage NO production | less stimulatory | 11.9 | 86.4 | – | 100 | increased | stimulates the uptake of coated spores and protect from spore-induced cell death | do not affect the diameter of phagocytic cells | pro-apoptotic effects | do not induce death | up to 87% | stimulate human macrophage nitric oxide (NO) production | 76.4 | 65.5 | almost total destruction of the spores | ~50 | 70-80%

From patent US8383084B2, “Destruction of spores through glycoconjugate enhanced phagocytosis” (priority 2006, dated 2013)
